{"source": "patent US20030129193A1", "about": "(priority 2001, published 2003)", "key": {"[1]": {"system": "C1300 mouse neuroblastoma", "assay": "In vivo tumor thrombosis, C1300", "parameters": "species or system BALB/c nu/nu mice", "settings": "large C1300 tumors (>1000 mm^3), 24 hours after injection", "excerpt": "Tumor test systems were of four types: i) 3LL mouse lung carcinoma growing subcutaneously in C57BL/6 mice; ii) C1300 mouse neuroblastoma growing subcutaneously in BALB/c nu/nu mice; iii) HT29 human colorectal carcinoma growing subcutaneously in BALB/c nu/nu mice; and iv) C1300 Muγ mouse neuroblastoma growing subcutaneously in BALB/c nu/nu mice. The C1300 Muγ tumor is an interferon-γ secreting transfectant derived from the C 1300 tumor (Watanabe et al., 1989).\nTo establish tumors, 10^6 to 1.5×10^7 tumor cells were injected subcutaneously into the right anterior flank of the mice. When tumors had grown to various sizes, mice were randomly assigned to different study groups. […] Fab′, or bispecific antibody. Other mice received equivalent quantities IgG, Fab′ or bispecific antibody alone. The injections were performed slowly into one of the tail veins over approximately 45 seconds, usually followed by 200 μl of saline.\nTwenty-four hours after being injected with tTF or immunoglobulin-tTF conjugates, the mice were anesthetized with metophane and were exsanguinated by perfusion with heparinized saline. Tumors and normal tissues were excised and immediately fixed in 3% (v/v) formalin. Paraffin sections were cut and stained with hematoxylin and eosin. Blood vessels having open lumens containing erythrocytes and blood vessels containing thrombi were counted. […]"}, "[2]": {"system": "HT29 human colorectal carcinoma", "assay": "Anti-tumor effects and tumor necrosis, HT29", "format": "in vivo, BALB/c nu/nu mice"}, "[3]": {"system": "L540rec human Hodgkin's lymphoma tumors", "assay": "Treatment studies, L540 Hodgkin's tumor necrosis", "format": "in vivo, SCID mice", "experimental": "For in vivo studies, a metastasizing mouse model for human Hodgkin's lymphoma was used. 1×10^7 L540rec cells were injected subcutaneously into the right flank of SCID mice resulting in a subcutaneous tumor with lymph node metastases in the regional lymph node stations. Subcutanous tumors were measured with a caliper in three perpendicular directions a, b, and c, and volumes calculated according to the formula V=π/6×a×b×c.\nTreatment was initiated when subcutaneous tumors reached a size of 150 to 300 μl. Reagents were administered into the lateral tail vein.\nMice were closely observed after treatment for clinical signs of toxicity and clinical status was documented at defined time points (5 minutes, 10 minutes, 15 minutes, 30 minutes, 1 hour, 2 hours, 24 hours, 48 hours, 72 hours). Blood samples were taken from the tail vein at 1 hour, 2 hours and 24 hours to measure TNFα blood levels. […]\nTissue samples harvested at the time of autopsy were fixed in 3% NBF (normal buffered formalin) and embedded in paraffin wax. […] Tissue sections were analyzed on a light microscope by two independent investigators and histological findings were documented. Tumor sections with necrotic areas were scanned with a GS-700 imaging densitometer (Biorad, Hercules, Calif.) and areas of necrosis were calculated as % of total section area. […]"}}}
{"substance": "tTF: extracellular domain of the mature Tissue Factor protein (amino acid 1-219)", "values": [{"measurement": "thrombosis of tumor vessels", "setting": "[1]", "result": "virtually all vessels were thrombosed"}, {"measurement": "growth discontinued after treatment", "setting": "[2]; large (1200 mm^3) tumors, i.v.", "result": "about 7 days"}, {"measurement": "necrosis in tumor sections", "setting": "[2]; small HT29 tumors, single agents, 24 hours", "result": "some necrosis"}, {"measurement": "tumor tissue necrosis", "setting": "[3]; 4 μg or 16 μg endotoxin-free tTF alone", "result": 0, "unit": "%"}, {"measurement": "% tumor necrosis", "setting": "[3]; Table 2, tTF alone", "result": 4, "unit": "%"}]}
